The results in this text go back to patent publication US3987157A, “Technetium 99-M labeled radio-diagnostic agents employing stannous tartrate and method of preparation” (Union Carbide Corporation, priority 1974, dated 1976).

Series [1] in a line: Stability of stannous compounds to air oxidation, 2.5 hours (Table XI). In kind it is physicochemical. Conditions: 40 ml saline and 1 ml 1N HCl. The method, then: Four salts of stannous compounds were each dissolved in a solution of 40 ml of saline and 1 ml of 1N HCl which was purged with nitrogen. The stannous concentration was measured and then the solution was subjected to oxidation conditions by bubbling air through the solution for 2.5 hours. The stannous concentration was again measured.

Series [2] in a line: Stability of various stannous compounds to air oxidation, one hour (Table XII). The series is classed as physicochemical. Conditions: for Stannous Concentration Before Aeration: 98 ml saline containing 2 ml 1N HCl; for Stannous Concentration After Aeration / % Not Oxidized tin: air bubbled for one hour; for % Not Oxidized tin: 60 min. The method, then: Six salts of stannous compounds were each dissolved in 98 ml of saline containing 2 ml 1N HCl. The solutions were analyzed in order to measure the stannous ion concentration and then were subjected to oxidation conditions by bubbling air through the solutions for one hour. The solutions were analyzed again. […]

Turning to `O=C([O-])[C@H](O)[C@@H](O)C(=O)[O-].[Sn+2]` [Stannous Tartrate, stannous tartrate], in series [1], the “Stannous Concentration Before Aeration” value was found to be 18.0 mg/mL. In addition, in series [2], the “Stannous Concentration Before Aeration” value worked out at 0.247 mg/mL, the “Stannous Concentration After Aeration” value was found to be 0.213 mg/mL and the “% Not Oxidized tin” value came out at 86.2%. Also, the “Stability to air oxidation (in words)” value in series [2] (one hour air) is recorded as “more stable than stannous chloride with tartrate or citrate ion present”.

On to `[Cl][Sn][Cl]` [Stannous Chloride, stannous chloride, reference compound], for which, in series [1], the “Stannous Concentration Before Aeration” value came out at 9.3 mg/mL. Also, in series [2], the “Stannous Concentration Before Aeration” value came out at 0.138 mg/mL, the “Stannous Concentration After Aeration” value is 0.085 mg/mL and the “% Not Oxidized tin” value is recorded as 61.6%.
